Measurements reported in patent US20230066946A1, “1,5-DIPHENYLPYRAZOLYL-3-OXYALKYL ACIDS AND 1-PHENYL-5-THIENYLPYRAZOLYL-3-OXYALKYL ACIDS AND THE USE THEREOF FOR CONTROL OF UNWANTED PLANT GROWTH” (Bayer Aktiengesellschaft, priority 2019, published 2023).

Assays:
ALOMY [1] = assay: Pre-emergence herbicidal action against ALOMY; type: in vivo, Alopecurus myosuroides; conditions: scored visually after about 3 weeks vs untreated controls, 100% = plants have died, 0% = like control plants
From the text: (§1) Seeds of mono- and dicotyledonous weed plants are placed in plastic pots in sandy loam soil (doubly sown with one species each of mono- or dicotyledonous weed plants per pot) and covered with soil. The compounds of the invention, formulated in the form of wettable powders (WP) or as emulsion concentrates (EC), are then applied onto the surface of the covering soil as aqueous suspension or emulsion with addition of 0.5% additive at a water application rate equivalent to 600 litres per hectare. After the treatment, the pots are placed in a greenhouse and kept under good growth conditions for the trial plants. After about 3 weeks, the effect of the preparations is scored visually in comparison with untreated controls as percentages. For example, 100% activity=the plants have died, 0% activity=like control plants. [table] Tables 4.1-4.15 below show the effects of selected compounds of the general formula (I) according to Tables 1 to 3 on various harmful plants at an application rate corresponding to 1280 or 320 g/ha, which have been obtained by the aforementioned experimental method.

CYPES = assay: Pre-emergence herbicidal action against CYPES; type: in vivo, Cyperus esculentus; conditions: scored visually after about 3 weeks vs untreated controls, 100% = plants have died, 0% = like control plants
From the text: as §1

ECHCG [2] = assay: Pre-emergence herbicidal action against ECHCG; type: in vivo, Echinochloa crus-galli; conditions: scored visually after about 3 weeks vs untreated controls, 100% = plants have died, 0% = like control plants
In short: (§2)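 Pre-emergence, sandy loam, pots doubly sown. WP/EC formulations + 0.5% additive, 600 L/ha water, sprayed on soil surface; 1280 or 320 g/ha. Greenhouse ~3 wk; visual % effect vs untreated.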

SETVI [3] = assay: Pre-emergence herbicidal action against SETVI; type: in vivo, Setaria viridis; conditions: 1280 g/ha, scored visually after about 3 weeks vs untreated controls
In short: as §2

AMARE [4] = assay: Pre-emergence herbicidal action against AMARE; type: in vivo, Amaranthus retroflexus; conditions: scored visually after about 3 weeks vs untreated controls; for Pre-emergence action at 320 g/ha against AMARE in %: 100% = plants have died, 0% = like control plants; for Pre-emergence action against AMARE in %: 1280 g/ha
In short: as §2

MATIN [5] = assay: Pre-emergence herbicidal action against MATIN; type: in vivo, Matricaria inodora; conditions: 1280 g/ha, scored visually after about 3 weeks vs untreated controls
In short: as §2

PHBPU [6] = assay: Pre-emergence herbicidal action against PHBPU; type: in vivo, Pharbitis purpurea; conditions: 1280 g/ha, scored visually after about 3 weeks vs untreated controls
From the text: as §1

POLCO [7] = assay: Pre-emergence herbicidal action against POLCO; type: in vivo, Polygonum convolvulus; conditions: 320 g/ha, scored visually after about 3 weeks vs untreated controls
In short: as §2

STEME [8] = assay: Pre-emergence herbicidal action against STEME; type: in vivo, Stellaria media; conditions: scored visually after about 3 weeks vs untreated controls
In short: as §2

VIOTR [9] = assay: Pre-emergence herbicidal action against VIOTR; type: in vivo, Viola tricolor; conditions: 1280 g/ha, scored visually after about 3 weeks vs untreated controls
In short: as §2

ALOMY [10] = assay: Post-emergence herbicidal action against ALOMY; type: in vivo, Alopecurus myosuroides; conditions: 1280 g/ha, post-emergence at one-leaf stage, rated visually after about 3 weeks vs untreated controls
In short: (§3)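 Weeds grown in sandy loam under greenhouse conditions were sprayed at the one-leaf stage, 2-3 weeks after sowing. Compounds were applied as WP or EC formulations in water with 0.5% additive at 600 L/ha, at 1280 or 320 g/ha. Activity was rated visually about 3 weeks later against untreated controls (0-100%).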

ECHCG [11] = assay: Post-emergence herbicidal action against ECHCG; type: in vivo, Echinochloa crus-galli; conditions: 1280 g/ha, post-emergence at one-leaf stage, rated visually after about 3 weeks vs untreated controls
In short: as §3

AMARE [12] = assay: Post-emergence herbicidal action against AMARE; type: in vivo, Amaranthus retroflexus; conditions: visual rating about 3 weeks after treatment
In short: as §3

MATIN [13] = assay: Post-emergence herbicidal action against MATIN; type: in vivo, Matricaria inodora; conditions: visual rating about 3 weeks after treatment
In short: as §3

PHBPU [14] = assay: Post-emergence herbicidal action against PHBPU; type: in vivo, Pharbitis purpurea; conditions: 320 g/ha, visual rating about 3 weeks after treatment
In short: as §3

STEME [15] = assay: Post-emergence herbicidal action against STEME; type: in vivo, Stellaria media; conditions: visual rating about 3 weeks after treatment
In short: as §3

harmful plants [16] = assay: Pre-emergence herbicidal action, summary of Tables 4.1-4.15; type: in vivo; conditions: result in words
In short: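 Percent herbicidal action (100% = plants dead, 0% = like controls) was assessed visually about 3 weeks after treatment. Application rates of 1280 or 320 g/ha were applied to the covering soil of freshly sown sandy-loam pots, in 600 l/ha water with 0.5% additive, before emergence.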

SETVI [17] = assay: Post-emergence herbicidal action against SETVI; type: in vivo, Setaria viridis; conditions: 1280 g/ha, post-emergence at one-leaf stage, rated visually after about 3 weeks vs untreated controls
In short: as §3

POLCO [18] = assay: Post-emergence herbicidal action against POLCO; type: in vivo, Polygonum convolvulus; conditions: 320 g/ha, visual rating about 3 weeks after treatment
In short: as §3

VIOTR [19] = assay: Post-emergence herbicidal action against VIOTR; type: in vivo, Viola tricolor; conditions: 320 g/ha, visual rating about 3 weeks after treatment
In short: as §3

VERPE = assay: Pre-emergence herbicidal action against VERPE; type: in vivo, Veronica persica; conditions: 320 g/ha, scored visually after about 3 weeks vs untreated controls
In short: as §2

harmful plants [20] = assay: Post-emergence herbicidal action, summary of Tables 5.1-5.16; type: in vivo; conditions: result in words
Description: Seeds of mono- and dicotyledonous weed plants are placed in plastic pots in sandy loam soil (twin sowing with one species each of mono- or dicotyledonous weed plants per pot), covered with soil and cultivated in a greenhouse under controlled growth conditions. 2 to 3 weeks after sowing, the test plants are treated at the one-leaf stage. The compounds of the invention, formulated in the form of wettable powders (WP) or as emulsion concentrates (EC), are applied to the green parts of the plants as aqueous suspension or emulsion with addition of 0.5% additive at a water application rate equivalent to 600 litres per hectare. After the test plants have been kept in the greenhouse under optimum growth conditions for about 3 weeks, the activity of the preparations is rated visually in comparison to untreated controls. For example, 100% activity=the plants have died, 0% activity=like control plants. Tables 5.1-5.16 below show the effects of selected compounds of the general formula (I) according to Tables 1 to 3 on various harmful plants at an application rate corresponding to 1280 or 320 g/ha, which have been obtained by the aforementioned experimental method. As the results from Tables 5.1-5.16 show, compounds of the invention have good herbicidal post-emergence efficacy against a broad spectrum of weed grasses and weeds. […] For example, compounds Nos. I-002, I-006, I-022, I-056 and I-072 applied by the post-emergence method have very good herbicidal action (80% to 100% herbicidal action) against harmful plants such as Alopecurus myosuroides, Amaranthus retroflexus, Matricaria inodora, Setaria viridis, Pharbitis purpurea and Stellaria media at an application rate of 1.28 kg of active substance or less per hectare.

In the case of `CCOC(=O)COc1nn(-c2ccccc2)c(-c2ccccc2)c1Br` [I-070], the “Pre-emergence action at 1280 g/ha against ALOMY in %” value (ALOMY [1]) is reported as 90%, the “Pre-emergence action at 1280 g/ha against CYPES in %” value (CYPES) is reported as 80% and the “Pre-emergence action at 1280 g/ha against ECHCG in %” value (ECHCG [2]) is reported as 90%. The “Pre-emergence action against SETVI in %” value (SETVI [3]) was 90%, the “Pre-emergence action at 320 g/ha against AMARE in %” value (AMARE [4]) was 100% and the “Pre-emergence action against AMARE in %” value (AMARE [4]) was 100%. The “Pre-emergence action against MATIN in %” value (MATIN [5]) was 90%, the “Pre-emergence action against PHBPU in %” value (PHBPU [6]) was 90% and the “Pre-emergence action against POLCO in %” value (POLCO [7]) was 80%. The “Pre-emergence action against STEME in %” value (STEME [8]; 320 g/ha) was 80%, the “Pre-emergence action against STEME in %” value (STEME [8]; 1280 g/ha) was 90% and the “Pre-emergence action against VIOTR in %” value (VIOTR [9]) was 90%. The “Post-emergence action against ALOMY in %” value (ALOMY [10]) was 80%, the “Post-emergence action against ECHCG in %” value (ECHCG [11]) was 80% and the “Post-emergence action against AMARE in %” value (AMARE [12]; 1280 g/ha) was 80%. The “Post-emergence action against MATIN in %” value (MATIN [13]; 1280 g/ha) was 80%, the “Post-emergence action against PHBPU in %” value (PHBPU [14]) was 90% and the “Post-emergence action against STEME in %” value (STEME [15]; 1280 g/ha) was 90%. The “herbicidal efficacy against harmful plants in the case of pre-emergence treatment” value (shortened to “herbicidal efficacy … of pre-emergence treatment”) (harmful plants [16]) was “good herbicidal efficacy”.

For `COC(=O)C(C)Oc1nn(-c2ccccc2F)c(-c2ccccc2)c1C#N` (centres unmarked) [I-061], the “Pre-emergence action at 1280 g/ha against ALOMY in %” value (ALOMY [1]) was 90%, the “Pre-emergence action at 1280 g/ha against CYPES in %” value (CYPES) was 90% and the “Pre-emergence action at 1280 g/ha against ECHCG in %” value (ECHCG [2]) was 90%. For the same compound, the “Pre-emergence action against SETVI in %” value (SETVI [3]) was 100%, the “Pre-emergence action at 320 g/ha against AMARE in %” value (AMARE [4]) was 90% and the “Pre-emergence action against AMARE in %” value (AMARE [4]) was 100%. The “Pre-emergence action against MATIN in %” value (MATIN [5]) was 90%, the “Pre-emergence action against PHBPU in %” value (PHBPU [6]) was 90% and the “Pre-emergence action against STEME in %” value (STEME [8]; 320 g/ha) was 90%. The “Pre-emergence action against STEME in %” value (STEME [8]; 1280 g/ha) was 100%, the “Pre-emergence action against VIOTR in %” value (VIOTR [9]) was 90% and the “Post-emergence action against ALOMY in %” value (ALOMY [10]) was 90%. The “Post-emergence action against ECHCG in %” value (ECHCG [11]) was 80%, the “Post-emergence action against SETVI in %” value (SETVI [17]) was 80% and the “Post-emergence action against AMARE in %” value (AMARE [12]; 320 g/ha) was 80%. The “Post-emergence action against AMARE in %” value (AMARE [12]; 1280 g/ha) was 80%, the “Post-emergence action against PHBPU in %” value (PHBPU [14]) was 80% and the “Post-emergence action against POLCO in %” value (POLCO [18]) was 80%. For the same compound, the “Post-emergence action against STEME in %” value (STEME [15]; 1280 g/ha) was 80%, the “Post-emergence action against VIOTR in %” value (VIOTR [19]) was 80% and the “herbicidal efficacy … of pre-emergence treatment” value (harmful plants [16]) was “good herbicidal efficacy”.

`COC(=O)COc1nn(-c2cccc(F)c2)c(-c2cccc(F)c2)c1Cl` [I-003] was tested, and the “Pre-emergence action at 1280 g/ha against CYPES in %” value (CYPES) was 100%, the “Pre-emergence action at 320 g/ha against AMARE in %” value (AMARE [4]) was 100% and the “Pre-emergence action against AMARE in %” value (AMARE [4]) was 100%. For the same compound, the “Pre-emergence action against MATIN in %” value (MATIN [5]) was 100%, the “Pre-emergence action against PHBPU in %” value (PHBPU [6]) was 80% and the “Pre-emergence action against STEME in %” value (STEME [8]; 1280 g/ha) was 100%. The “Pre-emergence action against VERPE in %” value (VERPE) was 100%, the “Post-emergence action against ECHCG in %” value (ECHCG [11]) was 80% and the “Post-emergence action against AMARE in %” value (AMARE [12]; 1280 g/ha) was 80%. The “Post-emergence action against MATIN in %” value (MATIN [13]; 320 g/ha) was 80%, the “Post-emergence action against MATIN in %” value (MATIN [13]; 1280 g/ha) was 80% and the “Post-emergence action against PHBPU in %” value (PHBPU [14]) was 80%. The “Post-emergence action against STEME in %” value (STEME [15]; 320 g/ha) was 80%, the “Post-emergence action against STEME in %” value (STEME [15]; 1280 g/ha) was 80% and the “herbicidal efficacy … of pre-emergence treatment” value (harmful plants [16]) was “good herbicidal efficacy”. For the same compound, the “herbicidal efficacy against harmful plants when applied post-emergence” value (harmful plants [20]) was “very good herbicidal efficacy”.
